Experiments:
[1] = system: Trypanosoma brucei brucei; assay: Antiprotozoal activity against Trypanosoma brucei brucei GVR35; format: functional
[2] = system: Trichomonas vaginalis; assay: Antiprotozoal activity against Trichomonas vaginalis CMP; format: functional, organism-based
[3] = system: Leishmania donovani; assay: Antiprotozoal activity against Leishmania donovani MHOM/ET/L82/LV9; format: functional, organism-based

`CCCCCCC(=O)Nc1ccc2nccnc2c1Br` was tested, and the MAC [1] was greater than 300 µM, the IC50 [2] was greater than 300 µM and the IC50 [3] was greater than 300 µM.
In the case of `CCn1c2ccccc2c2cc(NC(=O)c3ccc4nc(-c5ccccc5)c(-c5ccccc5)nc4c3)ccc21`, the MAC [1] is reported as greater than 300 µM, the IC50 [2] is reported as greater than 300 µM and the IC50 [3] is reported as greater than 300 µM.
`CCc1ccc(OCc2ccccc2C(=O)Nc2ccc3nc(C)c(C)nc3c2)cc1` showed an MAC [1] of 200 µM, an IC50 [2] greater than 300 µM and an IC50 [3] of 8.2 µM.
For `O=C(Nc1ccc2nccnc2c1Br)c1ccc(C(=O)c2ccccc2)cc1`, the MAC [1] was greater than 300 µM, the IC50 [2] was greater than 300 µM and the IC50 [3] was greater than 300 µM.
Work on `c1cnc2cc(NCc3ccc4c(c3)OCO4)ccc2n1` yielded an MAC [1] greater than 300 µM, an IC50 [2] greater than 300 µM and an IC50 [3] of 79.5 µM.
`O=C(Nc1ccc2nccnc2c1)c1ccc(Br)o1` gave an MAC [1] greater than 300 µM, an IC50 [2] greater than 300 µM and an IC50 [3] greater than 300 µM.
`COc1cc2oc3ccccc3c2cc1NC(=O)c1ccc2nc(-c3ccccc3)c(-c3ccccc3)nc2c1` showed an MAC [1] greater than 300 µM, an IC50 [2] greater than 300 µM and an IC50 [3] greater than 300 µM.
Work on `CCCCCCC(=O)Nc1ccc2nccnc2c1` yielded an MAC [1] greater than 300 µM, an IC50 [2] greater than 300 µM and an IC50 [3] of 117 µM.
`O=C(Nc1cccc2c1oc1ccccc12)c1ccc2nc(-c3ccccc3)c(-c3ccccc3)nc2c1` was tested, and the MAC [1] was greater than 300 µM, the IC50 [2] was greater than 300 µM and the IC50 [3] was greater than 300 µM.
In the case of `CCn1c2ccccc2c2cc(NC(=O)c3ccc4nccnc4c3)ccc21`, the MAC [1] is reported as 200 µM, the IC50 [2] is reported as greater than 300 µM and the IC50 [3] is reported as greater than 300 µM.
With `CCc1ccc(OCc2ccccc2C(=O)Nc2ccc3nc(C)cnc3c2)cc1` the MAC [1] was 200 µM, the IC50 [2] was greater than 300 µM and the IC50 [3] was 12.5 µM.
Work on `CCCCCCCCCCCCCCCC(=O)Nc1ccc2nccnc2c1Br` yielded an MAC [1] greater than 300 µM, an IC50 [2] greater than 300 µM and an IC50 [3] greater than 300 µM.
Work on `CCc1ccc(OCc2ccccc2NC(=O)c2ccc3nc(-c4ccccc4)c(-c4ccccc4)nc3c2)cc1` yielded an MAC [1] greater than 300 µM, an IC50 [2] greater than 300 µM and an IC50 [3] greater than 300 µM.
`COc1cc2oc3ccccc3c2cc1NC(=O)c1ccc2nccnc2c1` gave an MAC [1] greater than 300 µM, an IC50 [2] greater than 300 µM and an IC50 [3] greater than 300 µM.
`Cc1nc2ccc(NC(=O)C34CC5CC(CC(C5)C3)C4)cc2nc1C` was tested, and the MAC [1] was greater than 300 µM, the IC50 [2] was greater than 300 µM and the IC50 [3] was greater than 300 µM.
For `c1ccc2c(CNc3ccc4nccnc4c3)ccnc2c1`, the MAC [1] was greater than 300 µM, the IC50 [2] was greater than 300 µM and the IC50 [3] was 34 µM.
`O=C(Nc1ccc2nccnc2c1Br)c1ccc2ccccc2n1` showed an MAC [1] greater than 300 µM, an IC50 [2] greater than 300 µM and an IC50 [3] greater than 300 µM.
In the case of `CCc1ccc(OCc2ccccc2C(=O)Nc2ccc3nccnc3c2)cc1`, the MAC [1] is reported as 150 µM, the IC50 [2] is reported as 126 µM and the IC50 [3] is reported as 18.5 µM.
`CCCCCNc1ccc2nccnc2c1` was tested, and the MAC [1] was greater than 300 µM, the IC50 [2] was 243 µM and the IC50 [3] was 46.3 µM.
In the case of `CCCCCCCCCCCCCCCC(=O)Nc1ccc2nc(C)c(C)nc2c1`, the MAC [1] is reported as greater than 300 µM, the IC50 [2] is reported as greater than 300 µM and the IC50 [3] is reported as greater than 300 µM.
In the case of `Nc1nc(N)nc(Nc2ccc([As]3SCC(CO)S3)cc2)n1` (stereo not given) [MELARSOPROL], the MAC [1] is reported as 0.1 µM.
Molecule `CCc1ccc(OCc2ccccc2NC(=O)c2ccc3nc(C)cnc3c2)cc1` has an MAC [1] greater than 300 µM, an IC50 [2] greater than 300 µM and an IC50 [3] greater than 300 µM.
`CCCCCCCCCCCCCCCCOP(=O)([O-])OCC[N+](C)(C)C` [MILTEFOSINE] showed an IC50 [3] of 7.3 µM.
`CCn1c2ccccc2c2cc(N(C(=O)c3ccc4nc(-c5ccccc5)c(-c5ccccc5)nc4c3)C(=O)c3ccc4nc(-c5ccccc5)c(-c5ccccc5)nc4c3)ccc21` gave an MAC [1] greater than 300 µM, an IC50 [2] greater than 300 µM and an IC50 [3] greater than 300 µM.
Molecule `COc1cc2oc3ccccc3c2cc1N(C(=O)c1ccc2nc(-c3ccccc3)c(-c3ccccc3)nc2c1)C(=O)c1ccc2nc(-c3ccccc3)c(-c3ccccc3)nc2c1` has an MAC [1] greater than 300 µM, an IC50 [2] greater than 300 µM and an IC50 [3] greater than 300 µM.
`CCc1ccc(OCc2ccccc2NC(=O)c2ccc3nccnc3c2)cc1` was tested, and the MAC [1] was 200 µM, the IC50 [2] was greater than 300 µM and the IC50 [3] was 18.4 µM.
Work on `O=[N+]([O-])c1ccc(CNc2ccc3nccnc3c2)cc1` yielded an MAC [1] greater than 300 µM, an IC50 [2] of 191 µM and an IC50 [3] greater than 300 µM.
Work on `CCCCCCCCCCCCC(=O)Nc1ccc2nccnc2c1Br` yielded an MAC [1] greater than 300 µM, an IC50 [2] greater than 300 µM and an IC50 [3] greater than 300 µM.
`CCc1ccc(OCc2ccccc2C(=O)Nc2ccc3nc(-c4ccccc4)c(-c4ccccc4)nc3c2)cc1` showed an MAC [1] greater than 300 µM, an IC50 [2] greater than 300 µM and an IC50 [3] greater than 300 µM.
In the case of `c1ccc(CNc2ccc3nccnc3c2)cc1`, the MAC [1] is reported as greater than 300 µM, the IC50 [2] is reported as 264 µM and the IC50 [3] is reported as 92.4 µM.
With `Cc1ncc([N+](=O)[O-])n1CCO` [METRONIDAZOLE] the IC50 [2] was 5.8 µM.
`CCc1ccc(OCc2ccccc2NC(=O)c2ccc3nc(C)c(C)nc3c2)cc1` gave an MAC [1] greater than 300 µM, an IC50 [2] greater than 300 µM and an IC50 [3] greater than 300 µM.

Source: ChEMBL document CHEMBL1149446, “Synthesis and antiprotozoal activity of some new synthetic substituted quinoxalines” (Bioorg Med Chem Lett, 2006)
